Counter-ions that a name gives are not always drawn. Like-named read-outs stand apart in the source and are kept apart here.
Experiments:
Diplococcus pneumoniae = test: MIC vs. aerobic bacteria, microplate broth-dilution (BHI); format: cell-based; settings: Streptococcus pneumoniae, read-out: Minimal Inhibitory Concentration (MIC)
Description: (§1) The Minimal Inhibitory Concentration (MIC's) of both compounds Vs. aerobic bacteria is determined using a standard microplate broth-dilution method. Brain Heart Infusion (BHI-Difco) broth medium is used, and the plates are incubated at 37° C. for 20 hrs.

Escherichia coli = test: as above; format: cell-based; settings: UC45, UC 45, read-out: Minimal Inhibitory Concentration (MIC)
Description: as §1

Klebsiella pneumoniae = test: as above; format: cell-based; settings: Klebsiella pneumoniae, UC58, UC 58; read-out: Minimal Inhibitory Concentration (MIC)
Description: as §1

Proteus vulgaris = test: as above; format: cell-based; settings: Proteus vulgaris, UC93, UC 93; read-out: Minimal Inhibitory Concentration (MIC)
Description: as §1

Pseudomonas aeruginosa = test: as above; format: cell-based; settings: UC95, UC 95, read-out: Minimal Inhibitory Concentration (MIC)
Description: as §1

[1] = tested on: Salmonella schottmuelleri; test: as above; format: cell-based; settings: Salmonella, UC126; UC 126; read-out: Minimal Inhibitory Concentration (MIC)
Description: as §1

[2] = tested on: Staphylococcus epidermidis; test: as above; format: cell-based
Description: as §1

Streptococcus faecalis = test: as above; format: cell-based; settings: Enterococcus faecalis, UC694, UC 694; read-out: Minimal Inhibitory Concentration (MIC)
Description: as §1

Streptococcus pyogenes = test: as above; format: cell-based; settings: UC152, UC 152, read-out: Minimal Inhibitory Concentration (MIC)
Description: as §1

Streptococcus viridans = test: as above; format: cell-based
Description: as §1

Bacteroides distasonis = test: MIC vs. anaerobic bacteria, agar dilution; format: cell-based; settings: Parabacteroides distasonis, UC6518, UC 6518, read-out: Minimal Inhibitory Concentration (MIC)
Clostridium novyi B = test: MIC vs. anaerobic bacteria, agar dilution; format: cell-based; settings: UC6329, UC 6329, read-out: Minimal Inhibitory Concentration (MIC)
Description: (§2) The procedure for the above test is as follows: Serial two-fold dilutions of drug are prepared in 1.0 ml volumes of Schaedler Broth, and 9.0 ml of molten (47° C.) Wilkens-Chalgren Agar Medium, infra, is added to the antibiotic-supplemented broth. After mixing with the antibiotic, the agar is poured into 100 mm×20 mm petri dishes. The dishes are allowed to stand on the bench overnight prior to inoculation.
(§3) Cultures are streaked on Wilkens-Chalgren Agar, and grown for 48 hours at 37° C. in a BBL Anaerobe Jar. Growth from the plate is harvested, and a cell suspension is made in Schaedler broth to equal the turbidity of a 0.5 McFarland Standard (10^8 cells/ml). The suspension is pipetted into the wells of a Steers replicator, and approx. 1-2 μl is delivered to the surface of the agar plates. After allowing a few minutes for the inoculum to dry, the plates are placed in a BBL Anaerobe Jar (atomsphere of 85% N, 10% H, 5% CO2) and incubated at 37° C. for 72 hours.
(§4) The Minimal Inhibitory Concentration (MIC) is read as the least amount of drug that inhibits growth. A very faint film of growth, or <3 is colonies is considered negative.

Clostridium sordellii = test: MIC vs. anaerobic bacteria, agar dilution; format: cell-based; settings: Paraclostridium sordellii, UC6505, UC 6505, read-out: Minimal Inhibitory Concentration (MIC)
Description: as §2, §3, §4

Clostridium tentani = test: MIC vs. anaerobic bacteria, agar dilution; format: cell-based; settings: UC6521, UC 6521, read-out: Minimal Inhibitory Concentration (MIC)
Description: as §2, §3, §4

Clostridium botulinum A = test: microbe, parasite or virus in culture; format: cell-based; settings: UC6506, read-out: Minimal Inhibitory Concentration (MIC)
Eubacterium limosum = test: MIC vs. anaerobic bacteria, agar dilution; format: cell-based; settings: UC6515, UC 6515, read-out: Minimal Inhibitory Concentration (MIC)
Eubacterium lentum = test: MIC vs. anaerobic bacteria, agar dilution; format: cell-based; settings: Eggerthella lenta, UC6522, UC 6522, read-out: Minimal Inhibitory Concentration (MIC)
Fusobacterium nucleatum = test: MIC vs. anaerobic bacteria, agar dilution; format: cell-based
Peptococcus aerogenes = test: MIC vs. anaerobic bacteria, agar dilution; format: cell-based; settings: Peptoniphilus asaccharolyticus, UC6319, UC 6319, read-out: Minimal Inhibitory Concentration (MIC)
[3] = tested on: Peptostreptococcus anaerobius; test: MIC vs. anaerobic bacteria, agar dilution; format: cell-based; settings: UC6321, UC 6321, read-out: Minimal Inhibitory Concentration (MIC)
[4] = Acute I.P. toxicity in the mouse (LD50); format: in vivo
Text: This value is the resulting mean of two separate and identical LD50 determinations.

K. pneumoniae = test: Mouse Protection Test; format: in vivo; settings: Klebsiella pneumoniae, 168 h; route not given; once per day for 4 days; read-out: CD50 (median protective dose)
Text: (§5) Immediately before use, the suspensions were thawed quickly and properly diluted. Infection was via the intrapertioneal route.
(§6) Treatment of the infected groups was begun immediately and continued once per day for 4 days (first 24 hr period=1). Groups of untreated mice served as virulence controls for the culture.
(§7) Seven days after the treatment regimen was begun the surviving animals were sacrificed and the median protective dose of the antibiotic calculated on the basis of mortality rates in the treatment groups. The median protective dose and its 95% confidence interval were calculated according to the method of Spearmen & Karber as programmed on a 360 digital computer.

S. aureus = test: Mouse Protection Test; format: in vivo; settings: Staphylococcus aureus
Text: as §5, §6, §7

S. hemolyticus = test: Mouse Protection Test; format: in vivo; settings: for ED50: 168 h
Text: as §5, §6, §7

With `CC[C@@H]1CCN[C@H](C(=O)N[C@@H]([C@H]2O[C@H](SC)[C@H](O)[C@@H](O)[C@H]2O)[C@H](C)Cl)C1` [U-57,930E, 4-Cis-ethyl-1-pipecolic acid amide of 7-Cl-MTL.HCl] the MIC (Diplococcus pneumoniae; UC41, Diplococcus pneumoniae I, UC 41) was ≤ 0.012 µg/mL, the MIC (Diplococcus pneumoniae; UC3213, Diplococcus pneumoniae II, UC 3213) was ≤ 0.012 µg/mL and the MIC (Escherichia coli) was > 50 µg/mL. For the same compound, the MIC (Klebsiella pneumoniae) was > 50 µg/mL, the MIC (Proteus vulgaris) was > 50 µg/mL and the MIC (Pseudomonas aeruginosa) was > 50 µg/mL. For the same compound, the MIC [1] was > 50 µg/mL, the MIC ([2]; UC719, UC 719, read-out: Minimal Inhibitory Concentration (MIC)) was 0.2 µg/mL and the MIC ([2]; UC3389, UC 3389, read-out: Minimal Inhibitory Concentration (MIC)) was 0.2 µg/mL. The MIC (Streptococcus faecalis) was 6.25 µg/mL, the MIC (Streptococcus pyogenes) was ≤ 0.012 µg/mL and the MIC (Streptococcus viridans; UC153, UC 153, read-out: Minimal Inhibitory Concentration (MIC)) was 0.05 µg/mL. The MIC (Streptococcus viridans; UC871, UC 871, read-out: Minimal Inhibitory Concentration (MIC)) was ≤ 0.012 µg/mL, the MIC (Bacteroides distasonis) was ≤ 0.03 µg/mL and the MIC (Clostridium novyi B) was 0.12 µg/mL. For the same compound, the MIC (Clostridium sordellii) was 0.5 µg/mL, the MIC (Clostridium tentani) was ≤ 0.03 µg/mL and the MIC (Clostridium botulinum A) was ≤ 0.03 µg/mL. The MIC (Eubacterium limosum) was 2 µg/mL, the MIC (Eubacterium lentum) was 1 µg/mL and the MIC (Fusobacterium nucleatum; UC6324, UC 6324, read-out: Minimal Inhibitory Concentration (MIC)) was 0.06 µg/mL. The MIC (Fusobacterium nucleatum; UC6516, UC 6516, read-out: Minimal Inhibitory Concentration (MIC)) was 0.12 µg/mL, the MIC (Peptococcus aerogenes) was 0.06 µg/mL and the MIC [3] was 0.12 µg/mL. The “LD50 as multiple of the LD50 for clindamycin HCl” value [4] was “approximately 2 times”, the “acute I.P. toxicity relative to clindamycin HCl” value [4] was “approximately one-half” and the LD50 ([4]; in vivo, ip, mean of two determinations) was 592 mg/kg. The ED50 (K. pneumoniae) was > 320 mg/kg, the ED50 (S. aureus; 168 h, oral, once per day for 4 days, 95% confidence interval, read-out: CD50 (median protective dose)) was 1 to 5 mg/kg and the ED50 (S. aureus; UC76, 168 h, strain UC 76, oral, read-out: Median Protective Dose (CD50)) was 8.12 mg/kg. For the same compound, the ED50 (S. aureus; UC76, sc, 168 h, strain UC 76, subcutaneous, read-out: Median Protective Dose (CD50)) was 1.07 mg/kg, the ED50 (S. aureus; sc, 168 h, read-out: CD50 (median protective dose)) was < 5 mg/kg and the ED50 (S. hemolyticus; oral, once per day for 4 days, 95% confidence interval, read-out: CD50 (median protective dose)) was 2.9 mg/kg. The ED50 (S. hemolyticus; strain C203, oral, read-out: Median Protective Dose (CD50)) was 3.79 mg/kg, the “Ratio (clindamycin / U-57930A CD50)” value (S. hemolyticus; oral) was 4.2 and the ED50 (S. hemolyticus; sc, strain C203, subcutaneous, read-out: Median Protective Dose (CD50)) was 0.38 mg/kg. It also gave an ED50 (S. hemolyticus; sc, subcut., once per day for 4 days, 95% confidence interval, two experiments listed, read-out: CD50 (median protective dose)) of 0.25 mg/kg.
